Measurements from the OPERA property sets (Mansouri et al. 2018).

SMILES	boiling point [°C]	melting point [°C]	other results
NC(=O)Nc1ccc(Br)cc1	260	226	log10 Koc (L/kg): 2.06
CCCC(C)(CO)CO	234	62.5	–
CC1(C)C(C=C(Cl)Cl)C1C(=O)OC(C#N)c1cccc(Oc2ccccc2)c1 (stereo unspecified)	–	81.3	log10 Koc (L/kg): 5; log10 BCF (fish): 2.53
CCCCC(CC)COC(=O)CCC (stereo unspecified)	–	–	ready biodegradability: readily biodegradable
Cc1ccc(Cl)c([N+](=O)[O-])c1	261	7	–
OC(C1=CC(=C(c2ccccn2)c2ccccn2)C=C1)(c1ccccn1)c1ccccn1	–	147	–
C[Si](C)(C)O[Si](C)(C)O[Si](C)(C)O[Si](C)(C)C	194	-76	log10 Henry constant (atm·m³/mol): 1.23; log10 vapour pressure (mmHg): -0.426
CS(=O)(=O)Cl	162	–	–
CCC1(C)CC(=O)NC1=O (stereo unspecified)	–	65	–
CNC(=O)C(C)SCCSP(=O)(OC)OC (stereo unspecified)	–	43	–
FC(F)(F)C(F)(F)C(F)(F)I	41.2	-95	–
CCC=Cc1ccccc1	199	-43.1	–
N#CC(F)(Cl)Cl	33	-110	–
CCOC(=O)CCCCCC(=O)O	–	10	–
CC(C)C(C)C(C)C	114	-109	log10 biodegradation half-life (days): 1.18; log10 vapour pressure (mmHg): 1.43
Nc1c(Cl)cc(-c2cc(Cl)c(N)c(S(=O)(=O)O)c2)cc1S(=O)(=O)O	–	–	ready biodegradability: not readily biodegradable
CCCC(C(N)=O)n1nc2ccccc2n1 (stereo unspecified)	–	126	–
CCC(C)COC (stereo unspecified)	90	–	–
CC(C)CCC[C@@H](C)[C@H]1CC[C@H]2[C@@H]3CC=C4C[C@@H](OC(=O)Cc5ccc(N(CCCl)CCCl)cc5)CC[C@]4(C)[C@H]3CC[C@]12C	–	90	–
C=CCCC(CC)CCCC (stereo unspecified)	–	–	log10 biotransformation half-life (days) (fish): 0.93
O=C(Oc1ccccc1)c1ccccc1C(=O)Oc1ccccc1	–	73	–
O=c1cc(O)c2ccccc2o1	–	214	–

SMILES	boiling point [°C]	melting point [°C]	other results
Brc1ccccc1-c1ccccc1	297	1.5	–
FC(F)(Br)C(F)(F)C(F)(F)C(F)(F)Br	97	–	–
C=CCCCCCCCCCCC=C	–	–	log10 biodegradation half-life (days): 1.11
C=C[Si]1(C)O[Si](C)(C=C)O[Si](C)(C=C)O[Si](C)(C=C)O1 (stereo unspecified)	224	-43.5	–
CN1CCN(C(=O)OC2c3nccnc3C(=O)N2c2ccc(Cl)cn2)CC1 (stereo unspecified)	–	178	–
Ic1cccc(I)c1	285	40.4	–
Nc1cccc(C(=O)O)c1	–	173	ready biodegradability: not readily biodegradable
CCC(C)=C(C)C	97.5	-118	log10 vapour pressure (mmHg): 1.7
O=C1CCCO1	204	-43.3	log10 vapour pressure (mmHg): -0.347; ready biodegradability: readily biodegradable
O=c1[nH]c2ccccc2n1CCCN1CCN(C(c2ccccc2)c2ccccc2)CC1	–	154	–
C=COC(C)=O	72.5	-93.2	log10 vapour pressure (mmHg): 1.96; ready biodegradability: readily biodegradable
CC(C)(C)C(C)(C)O	131	17	–
Oc1c2ccccc2cc2ccccc12	–	152	–
FC(F)(F)c1ccccc1Cl	152	-6	log10 vapour pressure (mmHg): 0.706
CC(C)C(=O)c1ccccc1	220	-1.3	–
C#C[C@]1(O)CC[C@H]2[C@@H]3CCc4cc(OC)ccc4[C@H]3CC[C@@]21C	–	150	–
O=C(CI)c1ccccc1	–	34.4	–
CC(C)CC(=O)Cl	114	–	–
CCCN=C=S	153	–	–
CCOC(=O)C=Cc1ccc([N+](=O)[O-])cc1	–	139	–
CCOc1cccc(OCC)c1	235	12.4	–
CC(C)=CCC1=C(O)C(C(=O)CC(C)C)=C(O)C(CC=C(C)C)(CC=C(C)C)C1=O	–	93	–

SMILES	boiling point [°C]	melting point [°C]	other results
C1CCN2C[C@@H]3C[C@@H](CN4CCCC[C@@H]34)[C@H]2C1	325	30.5	–
CC(=O)OC1CCCCC1	173	-65	log10 vapour pressure (mmHg): 1.03
CC1=CC(=O)C(C(C)C)=CC1=O	232	45.5	–
Cc1ccc(CCN)cc1	214	–	–
CN=C(O)/C(=N/OC)c1ccccc1Oc1ccccc1	–	88	log10 vapour pressure (mmHg): -6.87
CCOC(=O)C1CC=CCC1 (stereo unspecified)	194	–	–
O=[N+]([O-])c1ccccc1Nc1ccccc1	–	75	log10 vapour pressure (mmHg): -5
CN1CCN(C2=Nc3cc(Cl)ccc3Nc3ccccc32)CC1	–	184	–
CCCCOC(=O)c1ccc([N+](=O)[O-])cc1	–	35.5	–
CCCCOC(=O)CCCCC(=O)OCCCC	–	-32.4	ready biodegradability: readily biodegradable
c1ccc(-c2ccncc2)cc1	281	77.5	–
O=C1CC(=O)NC(=S)N1	–	–	log10 vapour pressure (mmHg): -7.7
CC(C)(C)C1=CC(=O)C=C(C(C)(C)C)C1=O	–	66	–
O=C1CCCCCC1=O	–	-40	–
C=C(C)C(=O)OCC(C)C	155	–	log10 vapour pressure (mmHg): 0.56
O=C(Cl)C(c1ccccc1)c1ccccc1	–	56.5	–
O=[N+]([O-])OC(CO)CO	158	54	–
O=C1CCN(c2ccccc2)N1	–	126	–
CCC(C(=O)O)c1ccc(CC(C)C)cc1 (stereo unspecified)	–	52	–
Cc1ccc(C(=O)c2ccccc2)cc1	–	59.5	–
